Assay: Suspension assay testing: epinephrine dissolved in suspension
Assay type: physicochemical
From the text: Sample numbers /1 and /2 were not acidic. To confirm that these samples produced solid state epinephrine rather than dissolved epinephrine, I had these samples assayed to determine whether the epinephrine had in fact dissolved into solution and if so, by what amount.
Sample numbers /3 and /4 were basic pH. I thus had these samples assayed to determine whether the epinephrine dissolved into solution and if so, by what amount.

total epinephrine that dissolves in water (basic pH 8.5): about 0.1%
total epinephrine that dissolves in water (pH 7, without added acid): about 0.45%
Compound: CNC[C@H](O)c1ccc(O)c(O)c1 [Epinephrine, 4-[(1 R)-1-Hydroxy-2-(methylamino)ethyl]-1,2-benzenediol]
